In US20140066462A1, “TREATMENT OF POLYCYSTIC DISEASE” (Intellikine LLC, priority 2011, published 2014):

Columns and labels:
[1] = biological target: mTOR kinase domain (Homo sapiens, UniProt P42345); test: in vitro mTOR kinase assay (γ-32P-ATP, purified kinase domain); type: biochemical; settings: 10 μM ATP
Method: Purified mTOR kinase domain was incubated with inhibitors at 2- or 4-fold dilutions over a concentration range of 50-0.001 μM or with vehicle (0.1% DMSO) in the presence of 10 μM ATP, 2.5 μCi of γ-32P-ATP and substrate. Reactions were terminated by spotting onto nitrocellulose or phosphocellulose membranes, depending on the substrate; this membrane was then washed 5-6 times to remove unbound radioactivity and dried. Transferred radioactivity was quantified by phosphorimaging and IC50 values were calculated by fitting the data to a sigmoidal dose-response using Prism software.

[2] = system: PI3K (α, β, γ, and δ); test: selectivity of kinase inhibition, mTOR versus PI3K; type: biochemical; settings: selectivity mTOR over PI3K α
[3] = system: cellular proliferation; test: inhibition of cellular proliferation; type: cell-based
[4] = system: mTOR1/2 signaling; test: Western blot of kidney crude lysates of treated PKD(V/V) mice; type: in vivo; settings: 0.5 mg/kg p.o., kidney lysates 2 hours later
Method: (§1) In order to study mechanisms of selective intervention for treating PKD, PKD(V/V) (“V/V”) mice were used. V/V mice are an animal model of PKD which are homozygous for a mutation in PKD 1 (the gene implicated in 85% of PKD). (Yu S, et al. Proc. Natl. Acad. Sci. U.S.A. 2007; 104: 18688-18693.) These mice develop severe PKD rapidly during the postnatal period. P11 V/V mice were treated with Compound A (0.5 mg/kg; “+”) or vehicle (“−”) p.o. Animals were sacrificed 2 hours later and kidney crude lysates were prepared and subjected to Western blot analysis.
Whole kidneys were isolated from mice and immediately flash frozen. Tissues were ground using a mortar and pestle under a blanket of liquid nitrogen followed by homogenization in lysis buffer. Supernatants were loaded in gels and proteins were separated via electrophoresis. Primary antibodies were used to assess the following proteins: p-Akt (S473), p-Akt (T308), total-Akt, p-4E-BP1, total-4E-BP1, p-S6 ribosomal protein, and total-S6 ribosomal protein.

[5] = system: PKD(V/V) mice; test: body and kidney mass in PKD(V/V) mice treated P5-P11; type: in vivo
Method: as §1
(§2) To examine Compound A effects on kidney size in V/V mice, V/V mice were treated from P5-P11 with either vehicle or Compound A. Compound A dosing was 0.25 mg/kg on P5/P6, then 0.25 mg/kg bid on P7/P8, then 0.5 mg/kg bid on P9-11. Animals were sacrificed 2 hours after […] dose; kidneys were weighed, and one kidney was subjected to western blot and one to sectioning for histology.

[6] = system: PKD(V/V) mice; test: kidney histology (H&E sections) in PKD(V/V) mice treated P5-P11; type: in vivo; settings: P5-P11 dosing
Method: as §2
Sagittal sections of the left kidney from mice treated with vehicle or Compound A were fixed, embedded in paraffin, and sectioned for histological analysis as described in Piontek K B, et. al, (2004) J Am Soc Nephrol 15:3035-33043. Sections were stained with H&E at observed with a microscope at 4×, […], 20×, and 40× magnification. (FIGS. 6-9) Cyst volume was lower and parenchyma was increased in Compound A-treated mice, quantitated using ImageJ software. The number of glomeruli was increased in the Compound A treated section as compared to the vehicle treated section. […] (FIG. 9)

[7] = left kidney sagittal sections, ImageJ

Sequence of mTOR kinase domain (P42345 2156-2469 limits assumed, species assumed): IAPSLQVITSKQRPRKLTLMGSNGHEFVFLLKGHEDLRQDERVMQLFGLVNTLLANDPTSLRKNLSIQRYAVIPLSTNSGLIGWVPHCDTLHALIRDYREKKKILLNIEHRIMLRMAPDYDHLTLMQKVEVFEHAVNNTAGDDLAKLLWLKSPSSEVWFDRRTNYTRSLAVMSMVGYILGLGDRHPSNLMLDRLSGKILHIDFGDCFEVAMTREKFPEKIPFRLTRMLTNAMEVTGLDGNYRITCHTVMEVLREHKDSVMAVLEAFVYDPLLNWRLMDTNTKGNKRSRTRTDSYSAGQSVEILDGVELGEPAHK

IC50 [1] [nM] | more effective in inhibiting mTOR activity than that of PI3K (α, β, γ, and δ) [2] | Body mass in mutant and in Het/WT mice ([5]; P5-P11, 0.25 mg/kg P5/P6, 0.25 mg/kg bid P7/P8, 0.5 mg/kg bid P9-11, p<0.05) | SMILES | IC50 [3] [nM] | Baseline phosphorylation of S6 in wt and mutant mice [4] | S6-RP expression [4] | Akt S473 and T308 phosphorylation ([4]; P11 V/V mice) | Total Akt ([4]; P11 V/V mice) | p4E-BP1 in mutant mice ([4]; P11 V/V mice) | pS6-RP in mutant mice ([4]; P11 V/V mice) | Baseline phosphorylation and expression of 4E-BP1 in wt mice ([4]; wt mice) | kidney mass in Het/WT ([5]; Het/WT mice, P5-P11 dosing, p=0.22) | normalized kidney mass in Het/WT mice ([5]; Het/WT mice, P5-P11 dosing, p=0.5) | Average kidney mass, compared to vehicle treated mutants ([5]; V/V mutants, P5-P11 dosing, p=0.007) | Normalized kidney mass (combined kidney weight/body weight), compared with vehicle-treated mutants ([5]; V/V mutants, P5-P11 dosing, p=0.01) | number of glomeruli, compared to the vehicle treated section ([6]; 20× magnification) | appearance of the glomeruli, compared to the untreated kidney ([6]; 40× magnification) | Cyst volume [6, 7] | parenchyma [6, 7]
< 100 | over 1000 × | decreased | CC(C)(CO)n1nc(-c2ccc3oc(N)nc3c2)c2c(N)ncnc21 [Compound A] | 10 to 100 | markedly attenuated | relatively unaffected | moderately attenuated | unaffected | markedly inhibited | markedly inhibited | markedly attenuated | not significantly changed | no significant effect | significantly lower | significantly lower | increased | appeared normal | lower | increased
< 100 | – | – | CC(CO)n1nc(-c2ccc3oc(N)nc3c2)c2c(N)ncnc21 (stereo not drawn) [Compound B] | – | – | – | – | – | – | – | – | – | – | – | – | – | – | – | –
< 100 | – | – | CC(=O)Nc1nc2cc(-c3nn(C(C)C)c4ncnc(N)c34)ccc2o1 [Compound D] | – | – | – | – | – | – | – | – | – | – | – | – | – | – | – | –
